Values quoted from earlier work in patent publication US20090285877A1, “Percutaneous absorption preparation containing palonosetron” (HISAMITSU PHARMACEUTICAL CO., INC.,, priority 2008, published 2009).

Molecular target: T1, 5-HT3 receptor (Homo sapiens, UniProt P46098)
T1 sequence (P46098 24-478): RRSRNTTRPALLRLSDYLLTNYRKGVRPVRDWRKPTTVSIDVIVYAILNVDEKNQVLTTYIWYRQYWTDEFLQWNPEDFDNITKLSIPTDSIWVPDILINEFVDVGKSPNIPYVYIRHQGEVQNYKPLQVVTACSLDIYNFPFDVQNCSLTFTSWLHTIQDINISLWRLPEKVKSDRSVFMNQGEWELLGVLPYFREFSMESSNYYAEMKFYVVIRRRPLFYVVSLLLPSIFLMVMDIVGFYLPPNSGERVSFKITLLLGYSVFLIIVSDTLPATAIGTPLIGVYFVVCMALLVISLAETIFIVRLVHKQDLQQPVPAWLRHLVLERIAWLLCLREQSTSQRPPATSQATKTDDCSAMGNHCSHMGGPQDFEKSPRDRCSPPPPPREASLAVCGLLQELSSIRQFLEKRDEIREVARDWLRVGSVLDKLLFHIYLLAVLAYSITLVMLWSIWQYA

- binding affinity for 5-HT3 receptor: high binding affinity
Compound: Cl.O=C1c2cccc3c2[C@H](CCC3)CN1[C@@H]1CN2CCC1CC2 [Palonosetron hydrochloride, (3aS)-2-[(S)-1-azabicyclo[2.2.2]oct-3-yl]-2,3,3a,4,5,6-hexahydro-1-oxo-1H-1Hbenz[de]isoquinoline hydrochloride]
